According to patent US20240173312A1, “Pharmaceutical Composition Comprising a Benzoheterocyclic Compound and Androgen Receptor Pathway Modulator and Application Thereof” (KANGPU BIOPHARMACEUTICALS, LTD., priority 2015, published 2024):
Where two headings read alike, the source gives them in different places.

Test system: Vcap cells (androgen receptor (+) prostate cancer cells)
Test: CTG cell proliferation assay (CellTiter-Glo)
Conditions: for viability at 0.1 µM / viability at 1 µM / viability at 10 µM: Homo sapiens, VCaP, 120 h
[1] = read-out: Survival rate of Vcap cells, Table 4, tested compound alone, 0.1 μM
[2] = read-out: Survival rate of Vcap cells, Table 4, tested compound alone, 1 μM
[3] = read-out: Survival rate of Vcap cells, Table 4, tested compound alone, 10 μM
[4] = read-out: Survival rate of Vcap cells, Table 5, tested compound alone, 0.1 μM
[5] = read-out: Survival rate of Vcap cells, Table 5, tested compound alone, 1.0 μM
[6] = read-out: Survival rate of Vcap cells, Table 5, tested compound alone, 10 μM
[7] = read-out: Survival rate of Vcap cells, Table 10, tested compound alone, 0.1 μM
[8] = read-out: Survival rate of Vcap cells, Table 10, tested compound alone, 1.0 μM
[9] = read-out: Survival rate of Vcap cells, Table 10, tested compound alone, 10 μM
[10] = Table 4, tested compound alone, 1 μM
[11] = Table 5, tested compound 0.1 μM in combination with 1 μM ODM-201
[12] = Table 5, tested compound 1.0 μM in combination with 1 μM ODM-201
[13] = Table 5, tested compound 10 μM in combination with 1 μM ODM-201
[14] = Table 5, tested compound alone, 1.0 μM
[15] = Table 10, tested compound 0.1 μM in combination with 1 μM B001
[16] = Table 10, tested compound 1.0 μM in combination with 1 μM B001
[17] = Table 10, tested compound 10 μM in combination with 1 μM B001
[18] = Table 10, tested compound 0.1 μM in combination with 1 μM K001
[19] = Table 10, tested compound 1.0 μM in combination with 1 μM K001
[20] = Table 10, tested compound 10 μM in combination with 1 μM K001
[21] = read-out: Survival rate of Vcap cells, Table 9, tested compound alone, 0.1 μM
[22] = read-out: Survival rate of Vcap cells, Table 9, tested compound alone, 1.0 μM
[23] = read-out: Survival rate of Vcap cells, Table 9, tested compound alone, 10 μM
[24] = Table 9, tested compound 0.1 μM in combination with 1 μM ARN-509
[25] = Table 9, tested compound 1.0 μM in combination with 1 μM ARN-509
[26] = Table 9, tested compound 1.0 μM in combination with 1 μM Enzalutamide
[27] = Table 9, tested compound 10 μM in combination with 1 μM ARN-509
[28] = Table 9, tested compound 10 μM in combination with 1 μM Enzalutamide

Description: In vitro test of the inhibition effect of the compound in combination with androgen receptor pathway modulators and the like on the prostate cancer cell proliferation.
The tested compounds were used alone or in combination with other androgen receptor pathway modulators respectively. […] After that, 100 μl of CellTiter-Glo® cell viability assay reagent (Promega, catalogue number G7570) was added to each well and mixed well on a vibrator for 10 minutes to induce cell lysis. The 96-well plate was placed at room temperature for 10 minutes, so as to stabilize its luminescence signal. A white bottom membrane was pasted on the bottom of the plate and the plate was tested using EnSpire.

Cc1nc2cccc(N)c2c(=O)n1C1CCC(=O)NC1=O (stereo not drawn) [K001]
viability at 0.1 µM (read-out: Survival rate of Vcap cells, Table 3, tested compound alone, 0.1 μM): 85.1%
viability at 1 µM (read-out: Survival rate of Vcap cells, Table 3, tested compound alone, 1.0 μM): 65.8%
viability at 10 µM (read-out: Survival rate of Vcap cells, Table 3, tested compound alone, 10 μM): 61.4%
viability at 0.1 µM [1]: 85.1%
viability at 1 µM [2]: 65.8%
viability at 10 µM [3]: 61.4%
viability at 0.1 µM [4]: 79.2%
viability at 1 µM [5]: 59.7%
viability at 10 µM [6]: 51%
viability at 0.1 µM [7]: 91.2%
viability at 1 µM [8]: 73.8%
viability at 10 µM [9]: 66.1%
Survival rate of Vcap cells (Table 3, tested compound 0.1 μM in combination with 1 μM ARN-509): 43.6%
Survival rate of Vcap cells (Table 3, tested compound 0.1 μM in combination with 1 μM Enzalutamide): 42.4%
Survival rate of Vcap cells (Table 3, tested compound 1.0 μM in combination with 1 μM ARN-509): 36.0%
Survival rate of Vcap cells (Table 3, tested compound 1.0 μM in combination with 1 μM Enzalutamide): 36.4%
Survival rate of Vcap cells (Table 3, tested compound 10 μM in combination with 1 μM ARN-509): 33.5%
Survival rate of Vcap cells (Table 3, tested compound 10 μM in combination with 1 μM Enzalutamide): 35.1%
Survival rate of Vcap cells (Table 3, tested compound alone, 1.0 μM): 65.8%
Survival rate of Vcap cells (Table 4, tested compound 0.1 μM in combination with 1 μM Abiraterone acetate): 70.4%
Survival rate of Vcap cells (Table 4, tested compound 0.1 μM in combination with 1 μM Galeterone): 49.1%
Survival rate of Vcap cells (Table 4, tested compound 1 μM in combination with 1 μM Abiraterone acetate): 53.1%
Survival rate of Vcap cells (Table 4, tested compound 1 μM in combination with 1 μM Galeterone): 41.3%
Survival rate of Vcap cells (Table 4, tested compound 10 μM in combination with 1 μM Abiraterone acetate): 48.1%
Survival rate of Vcap cells (Table 4, tested compound 10 μM in combination with 1 μM Galeterone): 39.4%
Survival rate of Vcap cells [10]: 65.8%
Survival rate of Vcap cells [11]: 53.5%
Survival rate of Vcap cells [12]: 40.4%
Survival rate of Vcap cells [13]: 35.2%
Survival rate of Vcap cells [14]: 59.7%

C[C@]12CC[C@H](O)CC1=CC[C@@H]1[C@@H]2CC[C@]2(C)C(c3cccnc3)=CC[C@@H]12 [Abiraterone, reference compound]
viability at 0.1 µM [7]: 98.5%
viability at 1 µM [8]: 92.4%
viability at 10 µM [9]: 81.9%
Survival rate of Vcap cells [15]: 78.9%
Survival rate of Vcap cells [16]: 74.9%
Survival rate of Vcap cells [17]: 66.3%

CC(=O)O[C@H]1CC[C@@]2(C)C(=CC[C@@H]3[C@@H]2CC[C@]2(C)C(c4cccnc4)=CC[C@@H]32)C1 [Abiraterone acetate, reference compound]
viability at 0.1 µM [1]: 106%
viability at 1 µM [2]: 91.7%
viability at 10 µM [3]: 31.4%
viability at 0.1 µM [7]: 96.1%
viability at 1 µM [8]: 97%
viability at 10 µM [9]: 60.5%
Survival rate of Vcap cells [10]: 91.7%
Survival rate of Vcap cells [15]: 79.8%
Survival rate of Vcap cells [16]: 70.5%
Survival rate of Vcap cells [17]: 66.9%

C[C@]12C=CC(=O)C=C1CC[C@@H]1[C@@H]2C(=O)C[C@@]2(C)[C@H]1CC[C@]2(O)C(=O)CO [Prednisone, reference compound]
viability at 0.1 µM [7]: 99.1%
viability at 1 µM [8]: 99.7%
viability at 10 µM [9]: 99.4%
Survival rate of Vcap cells [15]: 87.6%
Survival rate of Vcap cells [18]: 91.5%
Survival rate of Vcap cells [16]: 78.7%
Survival rate of Vcap cells [19]: 74.2%
Survival rate of Vcap cells [17]: 73.8%
Survival rate of Vcap cells [20]: 68.0%

CC(O)(CS(=O)(=O)c1ccc(F)cc1)C(=O)Nc1ccc(C#N)c(C(F)(F)F)c1 (stereo not drawn) [bicalutamide, reference compound]
viability at 0.1 µM [7]: 99.2%
viability at 1 µM [8]: 94%
viability at 10 µM [9]: 92%
Survival rate of Vcap cells [15]: 77.1%
Survival rate of Vcap cells [18]: 78.7%
Survival rate of Vcap cells [16]: 69.0%
Survival rate of Vcap cells [19]: 64.1%
Survival rate of Vcap cells [17]: 67.1%
Survival rate of Vcap cells [20]: 61.5%

CC(O)c1cc(C(=O)N[C@@H](C)Cn2ccc(-c3ccc(C#N)c(Cl)c3)n2)[nH]n1 (stereo partly drawn) [ODM-201, reference compound]
viability at 0.1 µM [4]: 90.7%
viability at 1 µM [5]: 69%
viability at 10 µM [6]: 75.4%
Survival rate of Vcap cells [14]: 69.0%

Nc1cccc2c1CN([C@@H]1CCC(=O)NC1=O)C2=O [B003]
viability at 0.1 µM [21]: 83.7%
viability at 1 µM [22]: 81.3%
viability at 10 µM [23]: 80.4%
Survival rate of Vcap cells [24]: 54.0%
Survival rate of Vcap cells [25]: 46.5%
Survival rate of Vcap cells [26]: 45.4%
Survival rate of Vcap cells [27]: 42.4%
Survival rate of Vcap cells [28]: 44.2%

O=C1CC[C@H](N2Cc3c(OCc4ccc(CN5CCOCC5)cc4)cccc3C2=O)C(=O)N1 [D108]
viability at 0.1 µM [4]: 73%
viability at 1 µM [5]: 67.3%
viability at 10 µM [6]: 58.5%
Survival rate of Vcap cells [11]: 42.7%
Survival rate of Vcap cells [12]: 40.1%
Survival rate of Vcap cells [13]: 32.8%
Survival rate of Vcap cells [14]: 67.3%

[2H][C@@]1(N2Cc3c(N)cccc3C2=O)CCC(=O)NC1=O [B006]
viability at 0.1 µM [21]: 91.7%
viability at 1 µM [22]: 89.7%
viability at 10 µM [23]: 85.7%
Survival rate of Vcap cells [24]: 63.2%
Survival rate of Vcap cells (Table 9, tested compound 0.1 μM in combination with 1 μM Enzalutamide): 61.2%
Survival rate of Vcap cells [25]: 51.7%
Survival rate of Vcap cells [26]: 50.5%
Survival rate of Vcap cells [27]: 45.0%
Survival rate of Vcap cells [28]: 48.3%
Cell survival rate (notes of Table 9: 1.0 μM tested compound in combination with 1.0 μM Enzalutamide): 51.7%

C[C@]12CC[C@H](O)CC1=CC[C@@H]1[C@@H]2CC[C@]2(C)C(n3cnc4ccccc43)=CC[C@@H]12 [Galeterone, reference compound]
Survival rate of Vcap cells (Table 4, tested compound alone, 0.1 μM): 95.9%
Survival rate of Vcap cells [10]: 62.8%
Survival rate of Vcap cells (Table 4, tested compound alone, 10 μM): 19.3%
